These results are taken from US10463644B2, “Uses of sesquiterpene lactone compounds and their derivatives in drugs preparation” (ACCENDATECH, priority 2013, dated 2019).

Common to all, as to type: in vivo
Experiment [1] has as its system TNF-α secreted by synoviocyte. Kind of experiment: Content of TNF-α in culture supernatant of synoviocyte of RA model rats given test compound. As to conditions: rat RA model, dose 30 mg/kg.2d, normal control 0.38 ± 0.027, NaCl 0.74 ± 0.098. An excerpt:
(§1) Take Compound 1-50 prepared as per the method according to the present invention and employ the method provided in Reference to prepare model, group drugs and prepare culture supernatant of rat synoviocyte.
(§2) Employ the method provided in Reference to investigate the effects of the test compounds on the synoviocyte to secrete TNF-α and PGE2. Employ the method provided in Reference to investigate the effects of the test compounds on the synoviocyte to secrete IL-1β.
(§3) The experimental data of the test compound 1-50 at a dose of 30 mg/kg.2d as well as the normal control and NaCl group are as follows: […]

For experiment [2], the system named is IL-1β secreted by synoviocyte. The experiment is described as follows: Content of IL-1β in culture supernatant of synoviocyte of RA model rats given test compound. As to conditions: rat RA model, dose 30 mg/kg.2d, normal control 0.16 ± 0.034, NaCl 0.49 ± 0.136.
Text: as §1, §2, §3

Experiment [3] has as its system PGE2 secreted by synoviocyte. Kind of experiment: Content of PGE2 in culture supernatant of synoviocyte of RA model rats given test compound. To be noted: rat RA model, dose 30 mg/kg.2d, normal control 8.34 ± 1.29, NaCl 32.44 ± 10.32.
Text: as §1, §2, §3

`C=C1C(=O)OC2C1CCC(C)=C1CCC(C)(OC(=O)CC)C12` (stereo not drawn) [Compound 3]: the “Content of TNF-α in culture supernatant of synoviocyte (x ± s)” value (shortened to “Content of TNF-α”) in experiment [1] worked out at 0.55 ± 0.042 ng/mL. The “Content of IL-1β in culture supernatant of synoviocyte (x ± s)” value (“Content of IL-1β” for short) in experiment [2] was 0.36 ± 0.039 ng/mL. Besides, the “Content of PGE2 in culture supernatant of synoviocyte (x ± s)” value (“Content of PGE2” below) in experiment [3] is on record as 26.96 ± 1.59 ng/mL.

Regarding `C=C1C(=O)OC2C1CCC(C)=C1CCC(C)(OC(=O)CCC)C12` (stereo not drawn) [Compound 4], in experiment [1], the “Content of TNF-α” value is 0.56 ± 0.064 ng/mL. The “Content of IL-1β” value in experiment [2] was determined as 0.42 ± 0.064 ng/mL. Moreover, the “Content of PGE2” value in experiment [3] turned out to be 24.49 ± 2.67 ng/mL.

Consider `C=C1C(=O)OC2C1CCC(C)=C1CCC(C)(OC(=O)C(C)C)C12` (stereo not drawn) [Compound 6], for which, in experiment [1], the “Content of TNF-α” value is 0.61 ± 0.072 ng/mL. For the same compound, the “Content of IL-1β” value in experiment [2] stood at 0.36 ± 0.054 ng/mL. For the same compound, the “Content of PGE2” value in experiment [3] worked out at 26.75 ± 1.69 ng/mL.

For the compound `C=C1C(=O)OC2C1CCC(C)=C1CCC(C)(OC(=O)CC(C)C)C12` (stereo not drawn) [Compound 7], in experiment [1], the “Content of TNF-α” value is listed as 0.56 ± 0.044 ng/mL. In addition, in experiment [2], the “Content of IL-1β” value amounted to 0.39 ± 0.058 ng/mL. Moreover, the “Content of PGE2” value in experiment [3] came out at 22.82 ± 2.67 ng/mL.

For `C=C1C(=O)OC2C1CCC(C)=C1CCC(C)(OC(=O)CCl)C12` (stereo not drawn) [Compound 9], the “Content of TNF-α” value in experiment [1] was determined as 0.61 ± 0.065 ng/mL. The “Content of IL-1β” value in experiment [2] is recorded as 0.45 ± 0.064 ng/mL. Further, the “Content of PGE2” value in experiment [3] stood at 27.92 ± 2.67 ng/mL.

Regarding `C=C1C(=O)OC2C1CCC(C)=C1CCC(C)(OC(=O)C(Cl)Cl)C12` (stereo not drawn) [Compound 10], the “Content of TNF-α” value in experiment [1] worked out at 0.54 ± 0.055 ng/mL. For the same compound, the “Content of IL-1β” value in experiment [2] was found to be 0.42 ± 0.069 ng/mL. The “Content of PGE2” value in experiment [3] came out at 25.67 ± 7.12 ng/mL.

Regarding `C=C1C(=O)OC2C1CCC(C)=C1CCC(C)(OC(=O)CCCCBr)C12` (stereo not drawn) [Compound 12], the “Content of TNF-α” value in experiment [1] came out at 0.66 ± 0.043 ng/mL. The “Content of IL-1β” value in experiment [2] was 0.38 ± 0.069 ng/mL. Moreover, the “Content of PGE2” value in experiment [3] is given as 24.59 ± 2.35 ng/mL.

Turning to `C=C1C(=O)OC2C1CCC(C)=C1CCC(C)(OC(=O)C=CC)C12` (stereo not drawn) [Compound 15], in experiment [1], the “Content of TNF-α” value is 0.54 ± 0.045 ng/mL. For the same compound, the “Content of IL-1β” value in experiment [2] worked out at 0.41 ± 0.051 ng/mL. Moreover, the “Content of PGE2” value in experiment [3] was found to be 24.39 ± 2.38 ng/mL.

Turning to `C=C1C(=O)OC2C1CCC(C)=C1CCC(C)(OC(=O)C=C(C)C)C12` (stereo not drawn) [Compound 16], in experiment [1], the “Content of TNF-α” value stood at 0.57 ± 0.073 ng/mL. Besides, in experiment [2], the “Content of IL-1β” value stood at 0.34 ± 0.039 ng/mL. Moreover, the “Content of PGE2” value in experiment [3] was found to be 27.61 ± 4.21 ng/mL.

Consider `C=C1C(=O)OC2C1CCC(C)=C1CCC(C)(OC(=O)C=Cc3ccccc3)C12` (stereo not drawn) [Compound 17], for which, in experiment [1], the “Content of TNF-α” value was found to be 0.66 ± 0.077 ng/mL. In experiment [2], the “Content of IL-1β” value turned out to be 0.37 ± 0.065 ng/mL. In addition, in experiment [3], the “Content of PGE2” value is recorded as 28.95 ± 3.24 ng/mL.

Turning to `C=CCCC(=O)OC1(C)CCC2=C(C)CCC3C(=C)C(=O)OC3C21` (stereo not drawn) [Compound 18], in experiment [1], the “Content of TNF-α” value was determined as 0.64 ± 0.072 ng/mL. Besides, the “Content of IL-1β” value in experiment [2] amounted to 0.39 ± 0.029 ng/mL. In experiment [3], the “Content of PGE2” value is 20.62 ± 2.47 ng/mL.

For the compound `C#CCCCC(=O)O[C@]1(C)CCC2=C(C)CC[C@H]3C(=C)C(=O)O[C@@H]3[C@H]21` [Compound 19], in experiment [1], the “Content of TNF-α” value is 0.62 ± 0.056 ng/mL. Also, in experiment [2], the “Content of IL-1β” value stood at 0.42 ± 0.091 ng/mL. The “Content of PGE2” value in experiment [3] was 26.45 ± 5.21 ng/mL.

With `C=C1C(=O)OC2C1CCC(C)=C1CCC(C)(OC(=O)CCc3ccccc3)C12` (stereo not drawn) [Compound 20], in experiment [1], the “Content of TNF-α” value worked out at 0.58 ± 0.045 ng/mL. Also, the “Content of IL-1β” value in experiment [2] is 0.34 ± 0.056 ng/mL. The “Content of PGE2” value in experiment [3] was 27.38 ± 1.39 ng/mL.

As for `CC1=C2CC[C@@](C)(O)[C@@H]2[C@H]2OC(=O)[C@@H](CN(C)C)[C@@H]2CC1` [Compound 22], the “Content of TNF-α” value in experiment [1] (30 mg/kg) came to 0.61 ± 0.082 ng/mL. Besides, in experiment [2] (30 mg/kg), the “Content of IL-1β” value is listed as 0.34 ± 0.038 ng/mL. Besides, the “Content of PGE2” value in experiment [3] (30 mg/kg) is given as 24.69 ± 4.19 ng/mL.

Consider `COC[C@@H]1C(=O)O[C@H]2[C@H]1CCC1(CC1)[C@@H]1CCC3(CC3)[C@H]21` [Compound 30], for which the “Content of TNF-α” value in experiment [1] is 0.65 ± 0.057 ng/mL. Further, the “Content of IL-1β” value in experiment [2] stood at 0.38 ± 0.049 ng/mL. Moreover, in experiment [3], the “Content of PGE2” value amounted to 25.37 ± 4.21 ng/mL.

Turning to `O=C1O[C@H]2[C@@H](CCC3(CC3)[C@@H]3CCC4(CC4)[C@H]23)[C@@H]1CSc1ccccc1` [Compound 31], the “Content of TNF-α” value in experiment [1] was found to be 0.62 ± 0.056 ng/mL. Moreover, in experiment [2], the “Content of IL-1β” value was found to be 0.39 ± 0.051 ng/mL. For the same compound, the “Content of PGE2” value in experiment [3] turned out to be 24.41 ± 1.65 ng/mL.

As for `O=C1O[C@H]2[C@@H](CCC3(CC3)[C@@H]3CCC4(CC4)[C@H]23)[C@@H]1CSCc1ccccc1` [Compound 32], the “Content of TNF-α” value in experiment [1] is recorded as 0.64 ± 0.044 ng/mL. The “Content of IL-1β” value in experiment [2] stood at 0.37 ± 0.047 ng/mL. Further, the “Content of PGE2” value in experiment [3] is 22.75 ± 4.25 ng/mL.

In the case of `O=C1O[C@H]2[C@@H](CCC3(CC3)[C@@H]3CCC4(CC4)[C@H]23)[C@@H]1CNCc1ccccc1` [Compound 33], in experiment [1], the “Content of TNF-α” value was 0.63 ± 0.054 ng/mL. Further, in experiment [2], the “Content of IL-1β” value stood at 0.41 ± 0.052 ng/mL. Moreover, the “Content of PGE2” value in experiment [3] is 26.64 ± 2.67 ng/mL.

Take `O=C1O[C@H]2[C@@H](CCC3(CC3)[C@@H]3CCC4(CC4)[C@H]23)[C@@H]1CNCCO` [Compound 34]: the “Content of TNF-α” value in experiment [1] came to 0.54 ± 0.067 ng/mL. In experiment [2], the “Content of IL-1β” value stood at 0.35 ± 0.059 ng/mL. Also, the “Content of PGE2” value in experiment [3] amounted to 24.61 ± 3.24 ng/mL.

Regarding `CC1CCN(C[C@@H]2C(=O)O[C@@H]3C4C(CCC45CC5)C4(CC[C@@H]23)CC4)CC1` (stereo partly drawn) [Compound 36], in experiment [1], the “Content of TNF-α” value was determined as 0.66 ± 0.045 ng/mL. For the same compound, the “Content of IL-1β” value in experiment [2] is on record as 0.29 ± 0.064 ng/mL. Also, the “Content of PGE2” value in experiment [3] came out at 25.64 ± 2.14 ng/mL.

For `CN1CCN(CC2C(=O)O[C@@H]3[C@@H]4[C@@H](CCC45CC5)C4(CC[C@@H]23)CC4)CC1` (stereo partly drawn) [Compound 37], the “Content of TNF-α” value in experiment [1] worked out at 0.59 ± 0.035 ng/mL. Further, in experiment [2], the “Content of IL-1β” value came to 0.31 ± 0.037 ng/mL. For the same compound, in experiment [3], the “Content of PGE2” value came to 27.94 ± 2.69 ng/mL.

`O=C1O[C@H]2[C@@H](CCC3(CC3)[C@@H]3CCC4(CC4)[C@H]23)[C@@H]1CN1CCOCC1` [Compound 38]: the “Content of TNF-α” value in experiment [1] amounted to 0.67 ± 0.045 ng/mL. For the same compound, the “Content of IL-1β” value in experiment [2] turned out to be 0.35 ± 0.062 ng/mL. For the same compound, the “Content of PGE2” value in experiment [3] is 19.67 ± 3.14 ng/mL.
